# Experimental data: patent US4380535A, “Enkephalin degrading enzyme inhibitors” (priority 1981, dated 1983)
# Where a name gives a salt, the structure may show the parent alone.
# Tests used:
# [1] = system: enkephalin-degrading aminopeptidase; assay: inhibition of brain enzyme degradation of 3H-Leu-enkephalin (solubilized rat brain membrane preparation, TLC); format: biochemical; details: 1.0×10^-3 M inhibitor, 5.0×10^-4 M 3H-Leu-enkephalin, 37° C., 1 hour; control 52%
# Protocol: The ability of the compounds of the invention to inhibit the brain enzyme degradation of enkephalins was studied in the following test procedure.
# Brain enzymes from rats are used in the procedure and for this purpose solubilized rat brain membrane preparation, prepared as follows, is used:
# Brains from young male Charles River Co. rats were homogenized in 30 volumes 50 mM Tris pH 7.7 with a Polytron (Brinkmann). The homogenate was centrifuged at 50,000 x g for 15 min. The supernatant was discarded the pellet resuspended in 50 mM Tris pH 7.7 and centrifuged at 50,000 x g for 15 min. The resultant pellet was resuspended, centrifuged and washed 3 additional times as described above. The membrane pellet was solubilized by resuspension in 15 volumes 50 mM Tris pH 7.7, 1% Triton X-100 and incubation at 37° C. for 45 min. […]
# This preparation is incubated at 37° C. for 1 hour in the presence of 5.0×10^-4 M ^3 H-Leu-enkephalin in 50 mM tris buffer and 1.0×10^-3 M of the inhibitor to be tested. […] Markers of Leu-enkephalin (LE), tyrosinge (T) and tyrosine-glycine-glucine (TGG) are run with all samples and the relevant areas are scraped into scintillation vials and counted. […]
# When N-Me-Tyr-D-Cys-Gly-N-MePhe-Thz-NH2 is tested in this procedure, the percentage of hydrolysis poructs (analyzed by TLC of tagged Leu-enkephalin) is as follows: […]
# [2] = system: phenylbenozquinone-induced writhing; assay: phenylbenzoquinone-induced writhing test (modified Siegmund); format: in vivo; details: mice, subcutaneous administration, at 15 minutes; limits (10.9-29.7)
# Protocol: Biol. Med., 95, 729-731 (1957). According to this procedure, test compound is administered at various doses to ten mice per dose level. The animals then receive intraperitoneal injection with 0.25 ml of the writhing agonist (a 0.02% solution of benzoquinone) 5 min before the beginning of a pre-selected, 10 min observation period. Typical observation periods include 10 to 20, 25 to 35, 40 to 50 and 55 to 65 min following administration of the test compound. The mice are observed during the observation period for the presence of an all-or-none writhing reaction.
# If the compound is active, its dose response and ED50 value are determined according to the method of D. J. Finney (Statistical Methods in Biological Assay, Griffin and Co., London, 1964).
# opiate receptor = opiate receptor affinity, 3H-naloxone displacement in rat brain homogenate (modified Chang); format: binding; details: 3H-naloxone displacement (ID50) relative to morphine, with NaCl
compound,measurement,setting,value
"CN[C@@H](Cc1ccc(O)cc1)C(=O)N[C@H](CS)C(=O)NCC(=O)N(C)[C@@H](Cc1ccccc1)C(=O)N1CSC[C@H]1C(N)=O [N-Me-Tyr-D-Cys-Gly-N-MePhe-Thz-NH2, N^α -Methyl-L-tyrosyl-D-cysteinyl-glycyl-N-methyl-L-phenylalanyl-L-thiazolidine-4-carboxamide, acetate salt]",percentage of hydrolysis products: Tyr,[1],14%
same,ED50,[2],18 mg/kg
same,relative displacement potency as compared to morphine (1),opiate receptor,2.6
